Data reported in patent US9605004B2, “Chemical compounds” (SYNGENTA LIMITED, priority 2013, dated 2017).

Tests used:
[1] = test system: a variety of test species; assay: Pre-emergence herbicidal activity (Example 8a, Table 2); format: in vivo; parameters: key: 0 = no damage to plant, 5 = total damage to plant; settings: application pre-emergence, rate 1000 g/ha, evaluated after 13 days
Procedure: Seeds of a variety of test species were sown in standard soil in pots. After cultivation for one day (pre-emergence) under controlled conditions in a glasshouse (at 24/16° C., day/night; 14 hours light; 65% humidity), the plants were sprayed with an aqueous spray solution derived from the formulation of the technical active ingredient in acetone/water (50:50) solution containing 0.5% Tween 20 (polyoxyethelyene sorbitan monolaurate, CAS RN 9005-64-5). The test plants were then grown in a glasshouse under controlled conditions (at 24/16° C., day/night; 14 hours light; 65% humidity) and watered twice daily. After 13 days, the test was evaluated (5=total damage to plant; 0=no damage to plant).

[2] = test system: a variety of test species; assay: Post-emergence herbicidal activity (Example 8b, Table 3); format: in vivo; settings: application post-emergence, rate 1000 g/ha, evaluated after 13 days, scale 0-5; for Herbicidal damage score, ABUTH: Abutilon theophrasti; for Herbicidal damage score, ALOMY: Alopecurus myosuroides; for Herbicidal damage score, AMARE: Amaranthus retroflexus; for Herbicidal damage score, ECHCG: Echinochloa crus-galli; for Herbicidal damage score, SETFA: Setaria faberi; for Herbicidal damage score, ZEAMX: Zea mays
Procedure: Seeds of a variety of test species were sown in standard soil in pots. After 8 days cultivation (post-emergence) under controlled conditions in a glasshouse (at 24/16° C., day/night; 14 hours light; 65% humidity), the plants were sprayed with an aqueous spray solution derived from the formulation of the technical active ingredient in acetone/water (50:50) solution containing 0.5% Tween 20 (polyoxyethelyene sorbitan monolaurate, CAS RN 9005-64-5). The test plants were then grown in a glasshouse under controlled conditions (at 24/16° C., day/night; 14 hours light; 65% humidity) and watered twice daily. After 13 days, the test was evaluated (5=total damage to plant; 0=no damage to plant).

## C=CCC(C)(C)c1cc(N2C(=O)C(Cl)=C(C)C2O)nn1C (stereo not drawn) [Compound B6, 4-chloro-1-[5-(1,1-dimethylbut-3-enyl)-1-methyl-pyrazol-3-yl]-2-hydroxy-3-methyl-2H-pyrrol-5-one]
[1]
  Pre-emergence herbicidal activity, damage score ABUTH: 5
  Pre-emergence herbicidal activity, damage score ALOMY: 4
  Pre-emergence herbicidal activity, damage score AMARE: 5
  Pre-emergence herbicidal activity, damage score ECHCG: 4
  Pre-emergence herbicidal activity, damage score SETFA: 5
  Pre-emergence herbicidal activity, damage score ZEAMX: 4
[2]
  Herbicidal damage score, ABUTH: 5
  Herbicidal damage score, ALOMY: 5
  Herbicidal damage score, AMARE: 5
  Herbicidal damage score, ECHCG: 5
  Herbicidal damage score, SETFA: 5
  Herbicidal damage score, ZEAMX: 4

## CC(C)=Cc1cc(N2C(=O)C(Cl)=C(C)C2O)nn1C (stereo not drawn) [Compound B7, 4-chloro-2-hydroxy-3-methyl-1-[1-methyl-5-(2-methylprop-1-enyl)pyrazol-3-yl]-2H-pyrrol-5-one]
[1]
  Pre-emergence herbicidal activity, damage score ABUTH: 4
  Pre-emergence herbicidal activity, damage score ALOMY: 2
  Pre-emergence herbicidal activity, damage score AMARE: 4
  Pre-emergence herbicidal activity, damage score ECHCG: 4
  Pre-emergence herbicidal activity, damage score SETFA: 4
  Pre-emergence herbicidal activity, damage score ZEAMX: 2
[2]
  Herbicidal damage score, ABUTH: 5
  Herbicidal damage score, ALOMY: 4
  Herbicidal damage score, AMARE: 5
  Herbicidal damage score, ECHCG: 5
  Herbicidal damage score, SETFA: 5
  Herbicidal damage score, ZEAMX: 2

## CC1=C(Cl)C(=O)N(c2cc(I)n(C)n2)C1O (stereo not drawn) [Compound B8, 4-chloro-2-hydroxy-1-(5-iodo-1-methyl-pyrazol-3-yl)-3-methyl-2H-pyrrol-5-one]
[1]
  Pre-emergence herbicidal activity, damage score ABUTH: 4
  Pre-emergence herbicidal activity, damage score ALOMY: 4
  Pre-emergence herbicidal activity, damage score AMARE: 5
  Pre-emergence herbicidal activity, damage score ECHCG: 4
  Pre-emergence herbicidal activity, damage score SETFA: 5
  Pre-emergence herbicidal activity, damage score ZEAMX: 3
[2]
  Herbicidal damage score, ABUTH: 5
  Herbicidal damage score, ALOMY: 5
  Herbicidal damage score, AMARE: 5
  Herbicidal damage score, ECHCG: 5
  Herbicidal damage score, SETFA: 5
  Herbicidal damage score, ZEAMX: 4

## CC1=C(Cl)C(=O)N(c2cc(Cl)n(C)n2)C1O (stereo not drawn) [Compound B9]
[1]
  Pre-emergence herbicidal activity, damage score ABUTH: 4
  Pre-emergence herbicidal activity, damage score ALOMY: 3
  Pre-emergence herbicidal activity, damage score AMARE: 5
  Pre-emergence herbicidal activity, damage score ECHCG: 4
  Pre-emergence herbicidal activity, damage score SETFA: 5
  Pre-emergence herbicidal activity, damage score ZEAMX: 2
[2]
  Herbicidal damage score, ABUTH: 5
  Herbicidal damage score, ALOMY: 5
  Herbicidal damage score, AMARE: 5
  Herbicidal damage score, ECHCG: 5
  Herbicidal damage score, SETFA: 5
  Herbicidal damage score, ZEAMX: 5

## CC(C)=CCc1cc(N2C(=O)C(Cl)=C(C)C2O)nn1C (stereo not drawn) [Compound B10, 4-chloro-2-hydroxy-3-methyl-1-[1-methyl-5-(3-methylbut-2-enyl)pyrazol-3-yl]-2H-pyrrol-5-one]
[1]
  Pre-emergence herbicidal activity, damage score ABUTH: 0
  Pre-emergence herbicidal activity, damage score ALOMY: 0
  Pre-emergence herbicidal activity, damage score ECHCG: 0
  Pre-emergence herbicidal activity, damage score SETFA: 0
  Pre-emergence herbicidal activity, damage score ZEAMX: 0
[2]
  Herbicidal damage score, ABUTH: 3
  Herbicidal damage score, ALOMY: 0
  Herbicidal damage score, AMARE: 0
  Herbicidal damage score, ECHCG: 2
  Herbicidal damage score, SETFA: 5
  Herbicidal damage score, ZEAMX: 2

## CC1=C(Cl)C(=O)N(c2cc(/C=C/C(C)(C)C)n(C)n2)C1O (stereo not drawn) [Compound B11]
[1]
  Pre-emergence herbicidal activity, damage score ABUTH: 2
  Pre-emergence herbicidal activity, damage score ALOMY: 2
  Pre-emergence herbicidal activity, damage score AMARE: 4
  Pre-emergence herbicidal activity, damage score ECHCG: 4
  Pre-emergence herbicidal activity, damage score SETFA: 3
  Pre-emergence herbicidal activity, damage score ZEAMX: 2
[2]
  Herbicidal damage score, ABUTH: 5
  Herbicidal damage score, ALOMY: 3
  Herbicidal damage score, AMARE: 5
  Herbicidal damage score, ECHCG: 5
  Herbicidal damage score, SETFA: 5
  Herbicidal damage score, ZEAMX: 1

## CC1=C(Cl)C(=O)N(c2cc(C3=CCC(C)(C)CC3)n(C)n2)C1O (stereo not drawn) [Compound B12]
[1]
  Pre-emergence herbicidal activity, damage score ABUTH: 4
  Pre-emergence herbicidal activity, damage score ALOMY: 0
  Pre-emergence herbicidal activity, damage score AMARE: 1
  Pre-emergence herbicidal activity, damage score ECHCG: 0
  Pre-emergence herbicidal activity, damage score SETFA: 2
  Pre-emergence herbicidal activity, damage score ZEAMX: 1
[2]
  Herbicidal damage score, ABUTH: 1
  Herbicidal damage score, ALOMY: 1
  Herbicidal damage score, AMARE: 2
  Herbicidal damage score, ECHCG: 1
  Herbicidal damage score, SETFA: 1
  Herbicidal damage score, ZEAMX: 1

## CC1=C(Cl)C(=O)N(c2cc(C(F)(F)C(F)(F)F)n(C)n2)C1O (stereo not drawn) [Compound B13]
[1]
  Pre-emergence herbicidal activity, damage score ABUTH: 5
  Pre-emergence herbicidal activity, damage score ALOMY: 4
  Pre-emergence herbicidal activity, damage score AMARE: 5
  Pre-emergence herbicidal activity, damage score ECHCG: 5
  Pre-emergence herbicidal activity, damage score SETFA: 5
  Pre-emergence herbicidal activity, damage score ZEAMX: 2
[2]
  Herbicidal damage score, ABUTH: 5
  Herbicidal damage score, ALOMY: 5
  Herbicidal damage score, AMARE: 5
  Herbicidal damage score, ECHCG: 5
  Herbicidal damage score, SETFA: 5
  Herbicidal damage score, ZEAMX: 3

## CC1=C(Cl)C(=O)N(c2cc(C(C)C)n(C)n2)C1O (stereo not drawn) [Compound B14]
[1]
  Pre-emergence herbicidal activity, damage score ABUTH: 5
  Pre-emergence herbicidal activity, damage score ALOMY: 3
  Pre-emergence herbicidal activity, damage score AMARE: 5
  Pre-emergence herbicidal activity, damage score ECHCG: 5
  Pre-emergence herbicidal activity, damage score SETFA: 4
  Pre-emergence herbicidal activity, damage score ZEAMX: 2
[2]
  Herbicidal damage score, ABUTH: 5
  Herbicidal damage score, ALOMY: 4
  Herbicidal damage score, AMARE: 5
  Herbicidal damage score, ECHCG: 5
  Herbicidal damage score, SETFA: 4
  Herbicidal damage score, ZEAMX: 5

## CC1=C(Cl)C(=O)N(c2ccn(C)n2)C1O (stereo not drawn) [Compound B15]
[1]
  Pre-emergence herbicidal activity, damage score ABUTH: 4
  Pre-emergence herbicidal activity, damage score ALOMY: 3
  Pre-emergence herbicidal activity, damage score AMARE: 5
  Pre-emergence herbicidal activity, damage score ECHCG: 4
  Pre-emergence herbicidal activity, damage score SETFA: 4
  Pre-emergence herbicidal activity, damage score ZEAMX: 2
[2]
  Herbicidal damage score, ABUTH: 4
  Herbicidal damage score, ALOMY: 3
  Herbicidal damage score, AMARE: 4
  Herbicidal damage score, ECHCG: 4
  Herbicidal damage score, SETFA: 2
  Herbicidal damage score, ZEAMX: 1

## CC1=C(Cl)C(=O)N(c2cc(I)n(C)n2)C1O (stereo not drawn) [Compound B16]
[1]
  Pre-emergence herbicidal activity, damage score ABUTH: 4
  Pre-emergence herbicidal activity, damage score ALOMY: 4
  Pre-emergence herbicidal activity, damage score ECHCG: 4
  Pre-emergence herbicidal activity, damage score ZEAMX: 3
[2]
  Herbicidal damage score, ZEAMX: 4

## CC1=C(Cl)C(=O)N(c2cc(/C=C/C(C)(C)C)n(C)n2)C1O (stereo not drawn) [Compound B17]
[1]
  Pre-emergence herbicidal activity, damage score ABUTH: 2
  Pre-emergence herbicidal activity, damage score ALOMY: 2
  Pre-emergence herbicidal activity, damage score AMARE: 4
  Pre-emergence herbicidal activity, damage score ECHCG: 4
  Pre-emergence herbicidal activity, damage score SETFA: 3
  Pre-emergence herbicidal activity, damage score ZEAMX: 2
[2]
  Herbicidal damage score, ABUTH: 5
  Herbicidal damage score, ALOMY: 3
  Herbicidal damage score, AMARE: 5
  Herbicidal damage score, ECHCG: 5
  Herbicidal damage score, SETFA: 5
  Herbicidal damage score, ZEAMX: 1

## CC1=C(Cl)C(=O)N(c2cc(Cl)n(C)n2)C1O (stereo not drawn) [Compound B18]
[1]
  Pre-emergence herbicidal activity, damage score ABUTH: 4
  Pre-emergence herbicidal activity, damage score ALOMY: 3
  Pre-emergence herbicidal activity, damage score AMARE: 5
  Pre-emergence herbicidal activity, damage score ECHCG: 4
  Pre-emergence herbicidal activity, damage score SETFA: 5
  Pre-emergence herbicidal activity, damage score ZEAMX: 2
[2]
  Herbicidal damage score, ABUTH: 5
  Herbicidal damage score, ALOMY: 5
  Herbicidal damage score, AMARE: 5
  Herbicidal damage score, ECHCG: 5
  Herbicidal damage score, SETFA: 5
  Herbicidal damage score, ZEAMX: 5

## CC(C)=Cc1cc(N2C(=O)C(Cl)=C(C)C2O)nn1C (stereo not drawn) [Compound B20]
[1]
  Pre-emergence herbicidal activity, damage score ABUTH: 4
  Pre-emergence herbicidal activity, damage score ALOMY: 2
  Pre-emergence herbicidal activity, damage score AMARE: 4
  Pre-emergence herbicidal activity, damage score ECHCG: 4
  Pre-emergence herbicidal activity, damage score SETFA: 4
  Pre-emergence herbicidal activity, damage score ZEAMX: 2
[2]
  Herbicidal damage score, ALOMY: 4
  Herbicidal damage score, ZEAMX: 2
